Source: US20080125467A1, “Amino-Containing Compounds Which Inhibit Memapsin 2 Beta-Secretase Activity and Methods of Use Thereof” (priority 2004, published 2008)

Each compound was assayed against T1, memapsin 2 (Cricetulus griseus, UniProt G3IAK4) (assay: Cellular Aβ IC50 determination (Aβ40 sandwich ELISA)). Details: Chinese hamster ovary cells over-expressing human APP695 with London and Swedish mutations, 24 h.
T1 construct: endogenous in cells; host or cells: Chinese hamster ovary cells over-expressing human APP695 (London + Swedish)
T1 sequence (G3IAK4 22-501): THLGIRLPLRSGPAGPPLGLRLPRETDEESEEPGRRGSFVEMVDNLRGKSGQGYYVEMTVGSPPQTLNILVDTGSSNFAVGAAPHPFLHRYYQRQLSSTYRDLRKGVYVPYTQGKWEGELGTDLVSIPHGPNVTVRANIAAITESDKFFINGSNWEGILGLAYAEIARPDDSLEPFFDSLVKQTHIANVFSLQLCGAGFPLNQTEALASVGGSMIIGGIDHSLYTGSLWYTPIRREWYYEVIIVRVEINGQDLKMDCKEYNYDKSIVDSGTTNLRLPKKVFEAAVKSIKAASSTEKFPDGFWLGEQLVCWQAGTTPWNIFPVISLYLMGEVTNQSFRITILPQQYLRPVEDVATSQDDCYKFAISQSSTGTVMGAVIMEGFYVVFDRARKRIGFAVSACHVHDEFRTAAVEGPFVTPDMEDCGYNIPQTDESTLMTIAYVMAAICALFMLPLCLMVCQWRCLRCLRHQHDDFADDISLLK
Assay type: cell-based
Protocol: The potency of compounds against memapsin 2 activity was determined in a cellular assay of Aβ production. […] Chinese hamster ovary cells that over-express human APP695 with the London and Swedish mutations were seeded in multi-well plates at 10% confluency. Compounds were dissolved in DMSO to concentrations near 1 mM, and diluted into culture media to a final concentration near 4 μM (final 0.4% DMSO). Compounds were diluted serially and applied to cells in multi-well plates 48 h after seeding. Incubation was continued in 5% CO2 at 37 degrees C. for 24 h. Aliquots were removed and assayed for Aβ40 content using a sandwich ELISA (BioSource International). Amount of Aβ40 over the range of concentration of compounds, relative to control incubations, were fit to a 4-parameter IC50 model.

Compared with `Cc1csc(COC(=O)N[C@@H](CNS(C)(=O)=O)C(=O)N[C@@H](CC(C)C)[C@@H](O)C[C@@H](C)C(=O)N[C@H](C(=O)NCC(C)C)C(C)C)n1`, `Cc1csc(CC(C)C(=O)NC(CNS(C)(=O)=O)C(=O)NC(CC(C)C)C(O)CC(C)C(=O)NC(C(=O)NCC(C)C)C(C)C)n1` (stereo not shown) [4-hydroxy-N-(1-(isobutylamino)-3-methyl-1-oxobutan-2-yl)propanamido)-3-(methylsulfonamido)propanamido)octanamide] is lower in IC50: > 100 µM for the first, < 6 µM for the second.

Compared with `Cc1csc(COC(=O)N[C@@H](CNC(=O)OC(C)(C)C)C(=O)N[C@@H](CC(C)C)[C@@H](O)C[C@@H](C)C(=O)N[C@H](C(=O)NCC(C)C)C(C)C)n1`, `COC(=O)NC[C@H](NC(=O)OCc1nc(C)cs1)C(=O)N[C@@H](CC(C)C)[C@@H](O)C[C@@H](C)C(=O)N[C@H](C(=O)NCC(C)C)C(C)C` is lower in IC50: > 100 µM for the first, < 6 µM for the second.

First: Cc1csc(COC(=O)N[C@@H](CNC(=O)O[C@H]2CCOC2)C(=O)N[C@@H](CC(C)C)[C@@H](O)C[C@@H](C)C(=O)N[C@H](C(=O)NCC(C)C)C(C)C)n1
Second: COC(=O)NCC(NC(=O)C(C)Cc1nc(C)cs1)C(=O)NC(CC(C)C)C(O)CC(C)C(=O)NC(C(=O)NCC(C)C)C(C)C (stereo not shown) [methyl 3-(5-hydroxy-8-(1-(isobutylamino)-3-methyl-1-oxobutan-2-ylamino)-2,7-dimethyl-8-oxooctan-4-ylamino)-2-(2-methyl-3-(4-methylthiazol-2-yl)propanamido)-3-oxopropylcarbamate]
The IC50 of the first is higher: 6 to 100 µM for the first, < 6 µM for the second. The second is the more potent here.

First: CCC(Cn1nc(C)cc1C)C(=O)NC(CNC(=O)OCCF)C(=O)NC(CC(C)C)C(O)CC(C)C(=O)NC(C(=O)NCC(C)C)C(C)C (stereo not shown) [2-fluoroethyl 2-(2-((3,5-dimethyl-1H-pyrazol-1-yl)methyl)butanamido)-3-(5-hydroxy-8-(1-(isobutylamino)-3-methyl-1-oxobutan-2-ylamino)-2,7-dimethyl-8-oxooctan-4-ylamino)-3-oxopropylcarbamate]
Second: CCC(Cn1nc(C)cc1C)C(=O)NC(CNC(=O)OC(C)(C)C)C(=O)NC(CC(C)C)C(O)CC(C)C(=O)NC(C(=O)NCC(C)C)C(C)C (stereo not shown) [tert-butyl 2-(2-((3,5-dimethyl-1H-pyrazol-1-yl)methyl)butanamido)-3-(5-hydroxy-8-(1-(isobutylamino)-3-methyl-1-oxobutan-2-ylamino)-2,7-dimethyl-8-oxooctan-4-ylamino)-3-oxopropylcarbamate]
The IC50 of the first is higher: 6 to 100 µM for the first, < 6 µM for the second.

Compared with `COCCOC(=O)NCC(NC(=O)C(C)Cc1nc(C)cs1)C(=O)NC(CC(C)C)C(O)CC(C)C(=O)NC(C(=O)NCC(C)C)C(C)C` (stereo not shown) [2-methoxyethyl 3-(5-hydroxy-8-(1-(isobutylamino)-3-methyl-1-oxobutan-2-ylamino)-2,7-dimethyl-8-oxooctan-4-ylamino)-2-(2-methyl-3-(4-methylthiazol-2-yl)propanamido)-3-oxopropylcarbamate], `CC(=O)NCC(NC(=O)C(C)Cc1nc(C)cs1)C(=O)NC(CC(C)C)C(O)CC(C)C(=O)NC(C(=O)NCC(C)C)C(C)C` (stereo not shown) [5-(3-acetamido-2-(2-methyl-3-(4-methylthiazol-2-yl)propanamido)propanamido)-4-hydroxy-N-(1-(isobutylamino)-3-methyl-1-oxobutan-2-yl)-2,7-dimethyloctanamide] is higher in IC50: < 6 µM for the first, 6 to 100 µM for the second. The first is the more potent here.

`Cc1csc(CC(C)C(=O)NC(CN(C)S(C)(=O)=O)C(=O)NC(CC(C)C)C(O)CC(C)C(=O)NC(C(=O)NCC(C)C)C(C)C)n1` (stereo not shown) [4-hydroxy-N-(1-(isobutylamino)-3-methyl-1-oxobutan-2-yl)-2,7-dimethyl-5-(2-(2-methyl-3-(4-methylthiazol-2-yl)propanamido)-3-(N-methylmethylsulfonamido)propanamido)octanamide] and `Cc1csc(CC(C)C(=O)NC(CN)C(=O)NC(CC(C)C)C(O)CC(C)C(=O)NC(C(=O)NCC(C)C)C(C)C)n1` (stereo not shown) [5-(3-amino-2-(2-methyl-3-(4-methylthiazol-2-yl)propanamido)propanamido)-4-hydroxy-N-(1-(isobutylamino)-3-methyl-1-oxobutan-2-yl)-2,7-dimethyloctanamide] fall in the same range of IC50: 6 to 100 µM for the first, 6 to 100 µM for the second.

Compared with `CCC(Cc1nc(C)cs1)C(=O)NC(CN(C)OC)C(=O)NC(CC(C)C)C(O)CC(C)C(=O)NC(C(=O)NCC(C)C)C(C)C` (stereo not shown) [4-hydroxy-N-(1-(isobutylamino)-3-methyl-1-oxobutan-2-yl)-5-(3-(methoxy(methyl)amino)-2-(2-((4-methylthiazol-2-yl)methyl)butanamido)propanamido)-2,7-dimethyloctanamide], `CCC(Cc1nc(C)cs1)C(=O)NC(CNC(=O)OC(C)C)C(=O)NC(CC(C)C)C(O)CC(C)C(=O)NC(C(=O)NCC(C)C)C(C)C` (stereo not shown) [isopropyl 3-(5-hydroxy-8-(1-(isobutylamino)-3-methyl-1-oxobutan-2-ylamino)-2,7-dimethyl-8-oxooctan-4-ylamino)-2-(2-((4-methylthiazol-2-yl)methyl)butanamido)-3-oxopropylcarbamate] is lower in IC50: > 100 µM for the first, < 6 µM for the second. The second is the more potent here.

Compared with `Cc1csc(COC(=O)NCC(NC(=O)C(C)Cc2nc(C)cs2)C(=O)NC(CC(C)C)C(O)CC(C)C(=O)NC(C(=O)NCC(C)C)C(C)C)n1` (stereo not shown) [(4-methylthiazol-2-yl)methyl 3-(5-hydroxy-8-(1-(isobutylamino)-3-methyl-1-oxobutan-2-ylamino)-2,7-dimethyl-8-oxooctan-4-ylamino)-2-(2-methyl-3-(4-methylthiazol-2-yl)propanamido)-3-oxopropylcarbamate], `Cc1cc(C)n(CC(N)C(=O)NC(CNC(=O)OC(C)(C)C)C(=O)NC(CC(C)C)C(O)CC(C)C(=O)NC(C(=O)NCC(C)C)C(C)C)n1` (stereo not shown) [tert-butyl 2-(2-amino-3-(3,5-dimethyl-1H-pyrazol-1-yl)propanamido)-3-(5-hydroxy-8-(1-(isobutylamino)-3-methyl-1-oxobutan-2-ylamino)-2,7-dimethyl-8-oxooctan-4-ylamino)-3-oxopropylcarbamate] is higher in IC50: < 6 µM for the first, > 100 µM for the second. The first is the more potent here.

`CCC(Cn1nc(C)cc1C)C(=O)NC(CNC(=O)OC(C)(C)C)C(=O)NC(CC(C)C)C(O)CC(C)C(=O)NC(C(=O)NCC(F)(F)F)C(C)C` (stereo not shown) [tert-butyl 2-(2-((3,5-dimethyl-1H-pyrazol-1-yl)methyl)butanamido)-3-(5-hydroxy-2,7-dimethyl-8-(3-methyl-1-oxo-1-(2,2,2-trifluoroethylamino)butan-2-ylamino)-8-oxooctan-4-ylamino)-3-oxopropylcarbamate] and `CCC(Cn1nc(C)cc1C)C(=O)NC(CNC(=O)OC(C)(C)C)C(=O)NC(CC(C)C)C(O)CC(C)C(=O)NC(C(=O)NCc1ccccn1)C(C)C` (stereo not shown) [tert-butyl 2-(2-((3,5-dimethyl-1H-pyrazol-1-yl)methyl)butanamido)-3-(5-hydroxy-2,7-dimethyl-8-(3-methyl-1-oxo-1-(pyridin-2-ylmethylamino)butan-2-ylamino)-8-oxooctan-4-ylamino)-3-oxopropylcarbamate] fall in the same range of IC50: 6 to 100 µM for the first, 6 to 100 µM for the second.

With `CCC(Cn1nc(C)cc1C)C(=O)NC(CNC(=O)OC(C)(C)C)C(=O)NC(CC(C)C)C(O)CC(C)C(=O)NC(C(=O)NCc1ccncc1)C(C)C` (stereo not shown) [tert-butyl 2-(2-((3,5-dimethyl-1H-pyrazol-1-yl)methyl)butanamido)-3-(5-hydroxy-2,7-dimethyl-8-(3-methyl-1-oxo-1-(pyridin-4-ylmethylamino)butan-2-ylamino)-8-oxooctan-4-ylamino)-3-oxopropylcarbamate] the IC50 was < 6 µM.
